Molecular target: T1, hSPSB1 (Homo sapiens, UniProt Q96BD6)
T1 construct: hexahistidine (N, cleaved yes); made in house; host or cells: E. coli BL21(DE3)-R3-pRARE2
T1 sequence (Q96BD6 24-233): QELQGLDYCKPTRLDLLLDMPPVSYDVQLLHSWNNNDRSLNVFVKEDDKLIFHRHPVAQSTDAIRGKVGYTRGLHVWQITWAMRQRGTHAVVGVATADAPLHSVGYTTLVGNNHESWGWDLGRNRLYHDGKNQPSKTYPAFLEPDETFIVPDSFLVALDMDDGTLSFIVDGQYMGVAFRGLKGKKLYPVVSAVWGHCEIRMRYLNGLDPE
Assay: ITC of peptides with hSPSB1
Details: 20 °C, 50 mM Hepes pH 7.4, 150 mM NaCl, 1 mM DTT, 100 μM peptide into 10 μM protein, ± error of curve fit, single binding site model
Procedure: Human SPSB constructs lacking the SOCS box region [hSPSB1(24–233), SWISS-PROT accession number Q96BD6; hSPSB2(26–219), Q99619 and hSPSB4(28–233), Q96A44] were cloned into pNIC28-Bsa4 by ligation-independent cloning. Constructs were transformed into BL21(DE3)-R3-pRARE2 and expressed overnight at 18 °C with 0.5 mM IPTG added at OD600 = 0.5–0.8. hSPSB proteins were purified using Ni-Sepharose (GE Healthcare, UK), eluted by imidazole and subsequently cleaved from the N-terminal hexahistidine tag by addition of tobacco etch virus protease (although hSPSB2 was resistant to cleavage). Further purification was achieved by size-exclusion chromatography and finally anion-exchange chromatography in the case of hSPSB1.
ITC measurements on mSPSB proteins were performed at 22 °C using a MicroCalorimetry System (MicroCal, Northhampton, MA). mSPSB1, mSPSB2, and mSPSB4 were prepared by dialyzing against 20 mM Tris, 150 mM sodium chloride, and 2.5 mM calcium chloride at pH 8.0. […] Dilution enthalpies were determined separately by titrating peptide into buffer and used to correct the enthalpies of the binding of protein and peptide. Data were analyzed using a single binding site model implemented in the Origin software package provided with the instrument.

Kd: 40 ± 5 nM
Structure (SMILES): CC[C@H](C)[C@H](NC(=O)[C@H](Cc1ccc(O)cc1)NC(=O)[C@H](Cc1ccccc1)NC(=O)[C@H](CCC(=O)O)NC(=O)[C@H](CCCNC(=N)N)NC(=O)[C@H](CCCCN)NC(=O)[C@H](CCCNC(=N)N)NC(=O)[C@H](CCC(=O)O)NC(=O)[C@@H](NC(=O)[C@H](CC(=O)O)NC(=O)[C@H](CCC(=O)O)NC(=O)[C@@H](NC(=O)[C@@H](NC(=O)[C@H](CC(N)=O)NC(=O)[C@H](CC(N)=O)NC(=O)[C@H](CC(N)=O)NC(=O)[C@H](CC(N)=O)NC(=O)[C@H](CC(N)=O)NC(=O)[C@@H](NC(=O)[C@@H](N)CC(=O)O)[C@@H](C)CC)[C@@H](C)CC)C(C)C)C(C)C)C(=O)O [VASA]

From PMC2923778 (Journal of Molecular Biology, 2010)
